# What was measured:
# hFFA3 R71A = biological target: T1, hFFA3 R71A (Homo sapiens, UniProt O14843, R71A); experiment: Potency at FFA3 mutant R71A; format: cell-based
# T1 sequence (O14843 1-346 R71A): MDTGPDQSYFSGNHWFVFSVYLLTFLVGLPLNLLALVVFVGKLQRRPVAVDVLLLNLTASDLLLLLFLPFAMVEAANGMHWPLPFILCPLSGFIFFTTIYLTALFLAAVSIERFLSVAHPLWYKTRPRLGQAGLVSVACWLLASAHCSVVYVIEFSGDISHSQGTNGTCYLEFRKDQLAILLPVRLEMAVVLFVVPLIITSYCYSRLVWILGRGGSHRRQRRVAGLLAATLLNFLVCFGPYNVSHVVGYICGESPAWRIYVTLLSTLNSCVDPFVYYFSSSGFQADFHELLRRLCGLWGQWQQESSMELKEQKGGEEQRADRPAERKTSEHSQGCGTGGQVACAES
# Description: The previously published compound 1 was not affected by mutation of either R185A or R258A in the orthosteric binding site, and the compounds were therefore believed to be allosteric modulators. […] After the publication of the FFA1 crystal structure in complex with an allosteric agonist located in the TM region close to the intracellular site,[32] a homology model of hFFA3 was constructed using Modeller. […] Thus, additional docking of (R)-1 in this site were performed to find poses where Q131, but not R126, show a central role in binding. […] The narrow binding cavity around the core scaffold is in agreement with the restrained SAR observed for this series and the furan moiety pointing out of the binding cavity might explain the flexibility in substituents at this site (Figure 3c,d). Although Q131A impacts the potency of (R)-1 with high significance, the magnitude of the effect is lower than what would be generally expected for the removal of a hydrogen bond interaction; thus, additional studies are required to confirm the proposed binding site.
# FFA3 R185A = system: FFA3 R185A; set-up: method as in PMID 24870406; conditions: orthosteric binding site; cited from earlier work
smiles,measurement,setting,value
"CC1=C(C(=O)Nc2ccccc2C)C(c2ccco2)C2=C(CCCC2=O)N1 (centres unmarked) [Compound 1, 4-(Furan-2-yl)-2-methyl-5-oxo-N-(o-tolyl)-1,4,5,6,7,8-hexahydroquinoline-3-carboxamide, reference compound]",effect of mutation R71A on potency,hFFA3 R71A,did not affect
same,effect of mutation R185A,FFA3 R185A,not affected

# — paper PMC7307922 (Journal of Medicinal Chemistry, 2020)
